{
  "source": "patent US10206937B2",
  "about": "“Boronic acid derivatives and therapeutic uses thereof” (Qpex Biopharma, Inc., priority 2014, dated 2019)",
  "test_system": "strains of Enterobacteriaceae producing various carbapenemases (class A, D and B; 104 strains)",
  "assay": "Antibiotics potentiation by Compound 27 (MIC; meropenem, doripenem, ertapenem, cefepime)",
  "type": "cell-based",
  "conditions": "+ 27 = with Compound 27 at fixed 4 μg/ml",
  "data": [
    {"compound": "C[C@@H](O)[C@H]1C(=O)N2C(C(=O)O)=C(S[C@@H]3CN[C@H](CNS(N)(=O)=O)C3)[C@H](C)[C@H]12", "note": "[D]", "values": [
      {"measurement": "MIC", "setting": "strain CF1012 Citrobacter freundii (KPC-2)", "result": "Y (MIC of 1 μg/mL to 10 μg/mL)"},
      {"measurement": "MIC", "setting": "strain CF1021 Citrobacter freundii (CMY-type; VIM-1)", "result": "Y (MIC of 1 μg/mL to 10 μg/mL)"},
      {"measurement": "MIC", "setting": "strain CF1022 Citrobacter freundii (SHV-12(2be), TEM-OSBL(2b); IMP-8)", "result": "Y (MIC of 1 μg/mL to 10 μg/mL)"},
      {"measurement": "MIC", "setting": "strain CF1023 Citrobacter freundii (SHV-12(2be), TEM-OSBL(2b); CTX-M-3; CMY-34; NDM-1)", "result": "Z (MIC of greater than 10 μg/mL)"},
      {"measurement": "MIC", "setting": "strain CL1080 Enterobacter cloacae (IMP-1)", "result": "X (MIC of less than 1 μg/mL)"},
      {"measurement": "MIC", "setting": "strain EA1019 Enterobacter aerogenes (SHV-5, VIM-1)", "result": "Z (MIC of greater than 10 μg/mL)"},
      {"measurement": "MIC", "setting": "strain EC1007 Escherichia coli (KPC-3)", "result": "X (MIC of less than 1 μg/mL)"},
      {"measurement": "MIC", "setting": "strain EC1061 Escherichia coli (NDM-1, CMY-6)", "result": "Z (MIC of greater than 10 μg/mL)"},
      {"measurement": "MIC", "setting": "strain EC1062 Escherichia coli (OXA-48, CTX-M-15)", "result": "X (MIC of less than 1 μg/mL)"},
      {"measurement": "MIC", "setting": "strain EC1064 Escherichia coli (NDM-1, CMY-6, CTX-M-15)", "result": "Z (MIC of greater than 10 μg/mL)"},
      {"measurement": "MIC", "setting": "strain EC1065 Escherichia coli (IMP-1)", "result": "Y (MIC of 1 μg/mL to 10 μg/mL)"},
      {"measurement": "MIC", "setting": "strain EC1068 Escherichia coli (VIM-1)", "result": "Z (MIC of greater than 10 μg/mL)"},
      {"measurement": "MIC", "setting": "strain EC1069 Escherichia coli (CTX-M-27; NDM-1)", "result": "Z (MIC of greater than 10 μg/mL)"},
      {"measurement": "MIC", "setting": "strain EC1070 Escherichia coli (TEM-OSBL(2b); CMY-42; NDM-5)", "result": "Z (MIC of greater than 10 μg/mL)"},
      {"measurement": "MIC", "setting": "strain EC1072 Escherichia coli (CTX-M-3; NDM-1)", "result": "Z (MIC of greater than 10 μg/mL)"},
      {"measurement": "MIC", "setting": "strain ECL1004 Enterobacter cloacae (NMC-A)", "result": "Y (MIC of 1 μg/mL to 10 μg/mL)"},
      {"measurement": "MIC", "setting": "strain ECL1026 Enterobacter cloacae (KPC-2, TEM-1)", "result": "Y (MIC of 1 μg/mL to 10 μg/mL)"},
      {"measurement": "MIC", "setting": "strain ECL1036 Enterobacter cloacae (KPC-3, TEM-1)", "result": "Y (MIC of 1 μg/mL to 10 μg/mL)"},
      {"measurement": "MIC", "setting": "strain ECL1045 Enterobacter cloacae (VIM-1)", "result": "Y (MIC of 1 μg/mL to 10 μg/mL)"},
      {"measurement": "MIC", "setting": "strain ECL1055 Enterobacter cloacae (KPC-3, TEM)", "result": "Y (MIC of 1 μg/mL to 10 μg/mL)"},
      {"measurement": "MIC", "setting": "strain ECL1057 Enterobacter cloacae (NDM-1, TEM-1, CTX-M-15)", "result": "Z (MIC of greater than 10 μg/mL)"},
      {"measurement": "MIC", "setting": "strain ECL1058 Enterobacter cloacae (KPC-3, SHV-11, TEM-1)", "result": "Z (MIC of greater than 10 μg/mL)"},
      {"measurement": "MIC", "setting": "strain ECL1059 Enterobacter cloacae (KPC-3, SHV-12, TEM-1)", "result": "Y (MIC of 1 μg/mL to 10 μg/mL)"},
      {"measurement": "MIC", "setting": "strain ECL1061 Enterobacter cloacae (KPC-3, Hyper AmpC expression)", "result": "Y (MIC of 1 μg/mL to 10 μg/mL)"},
      {"measurement": "MIC", "setting": "strain ECL1082 Enterobacter cloacae (VIM-1)", "result": "Z (MIC of greater than 10 μg/mL)"},
      {"measurement": "MIC", "setting": "strain ECL1084 Enterobacter cloacae (CTX-M-15; ACT-16; NDM-1)", "result": "Z (MIC of greater than 10 μg/mL)"},
      {"measurement": "MIC", "setting": "strain ECL1085 Enterobacter cloacae (SHV-31(2be), TEM-1(2b); CTX-M-15; NDM-1)", "result": "Z (MIC of greater than 10 μg/mL)"},
      {"measurement": "MIC", "setting": "strain ECL1086 Enterobacter cloacae (VIM-31, OXA-48(c))", "result": "Y (MIC of 1 μg/mL to 10 μg/mL)"},
      {"measurement": "MIC", "setting": "strain ECL1087 Enterobacter cloacae (VIM-1)", "result": "Z (MIC of greater than 10 μg/mL)"},
      {"measurement": "MIC", "setting": "strain ECL1088 Enterobacter cloacae (TEM-1(2b); CTX-M-14; ACT-type; VIM-1)", "result": "Z (MIC of greater than 10 μg/mL)"},
      {"measurement": "MIC", "setting": "strain ECL1089 Enterobacter cloacae (ACT-type; IMP-1)", "result": "Z (MIC of greater than 10 μg/mL)"},
      {"measurement": "MIC", "setting": "strain ECL1090 Enterobacter cloacae (TEM-1(2b); CTX-M-22; ACT-type; IMP-8)", "result": "Y (MIC of 1 μg/mL to 10 μg/mL)"},
      {"measurement": "MIC", "setting": "strain ECL1091 Enterobacter cloacae (VIM-1)", "result": "Z (MIC of greater than 10 μg/mL)"},
      {"measurement": "MIC", "setting": "strain ECL1092 Enterobacter cloacae (TEM-OSBL(2b); ACT-32; VIM-1)", "result": "Y (MIC of 1 μg/mL to 10 μg/mL)"},
      {"measurement": "MIC", "setting": "strain ECL1093 Enterobacter cloacae (TEM-OSBL(2b); ACT-32; VIM-1)", "result": "Y (MIC of 1 μg/mL to 10 μg/mL)"},
      {"measurement": "MIC", "setting": "strain ECL1094 Enterobacter cloacae (VIM-1)", "result": "Z (MIC of greater than 10 μg/mL)"},
      {"measurement": "MIC", "setting": "strain ECL1096 Enterobacter cloacae (CMY-4, VIM-4, OXA-48(c))", "result": "Y (MIC of 1 μg/mL to 10 μg/mL)"},
      {"measurement": "MIC", "setting": "strain ECL1097 Enterobacter cloacae (SHV-31(2be), TEM-OSBL(2b); CTX-M-15; ACT-31; NDM-1)", "result": "Z (MIC of greater than 10 μg/mL)"},
      {"measurement": "MIC", "setting": "strain ECL1098 Enterobacter cloacae (TEM-OSBL(2b); DHA-1; ACT-16; NDM-1)", "result": "Z (MIC of greater than 10 μg/mL)"},
      {"measurement": "MIC", "setting": "strain KP1001 Klebsiella pneumoniae (KPC TEM SHV)", "result": "Z (MIC of greater than 10 μg/mL)"},
      {"measurement": "MIC", "setting": "strain KP1002 Klebsiella pneumoniae (KPC TEM SHV)", "result": "Y (MIC of 1 μg/mL to 10 μg/mL)"},
      {"measurement": "MIC", "setting": "strain KP1003 Klebsiella pneumoniae (KPC TEM SHV)", "result": "Y (MIC of 1 μg/mL to 10 μg/mL)"},
      {"measurement": "MIC", "setting": "strain KP1004 Klebsiella pneumoniae (KPC-2, TEM-1, SHV-11)", "result": "Y (MIC of 1 μg/mL to 10 μg/mL)"},
      {"measurement": "MIC", "setting": "strain KP1008 Klebsiella pneumoniae (KPC-2)", "result": "X (MIC of less than 1 μg/mL)"},
      {"measurement": "MIC", "setting": "strain KP1014 Klebsiella pneumoniae (VIM-1, TEM, SHV)", "result": "Z (MIC of greater than 10 μg/mL)"},
      {"measurement": "MIC", "setting": "strain KP1054 Klebsiella pneumoniae (VIM-1, SHV-11)", "result": "Z (MIC of greater than 10 μg/mL)"},
      {"measurement": "MIC", "setting": "strain KP1059 Klebsiella pneumoniae (VIM-1, SHV-11)", "result": "Z (MIC of greater than 10 μg/mL)"},
      {"measurement": "MIC", "setting": "strain KP1061 Klebsiella pneumoniae (KPC-3, SHV-11, TEM-1)", "result": "Z (MIC of greater than 10 μg/mL)"},
      {"measurement": "MIC", "setting": "strain KP1064 Klebsiella pneumoniae (KPC-2, SHV-11, TEM-1)", "result": "Z (MIC of greater than 10 μg/mL)"},
      {"measurement": "MIC", "setting": "strain KP1065 Klebsiella pneumoniae (VIM-1, SHV-11)", "result": "Y (MIC of 1 μg/mL to 10 μg/mL)"},
      {"measurement": "MIC", "setting": "strain KP1070 Klebsiella pneumoniae (KPC-2, SHV-11, TEM-1)", "result": "Y (MIC of 1 μg/mL to 10 μg/mL)"},
      {"measurement": "MIC", "setting": "strain KP1074 Klebsiella pneumoniae (KPC-3, SHV-11, TEM)", "result": "Z (MIC of greater than 10 μg/mL)"}
    ]}
  ]
}
